From PMC5653814, “Regiospecific Synthesis of Ring A Fused Withaferin A Isoxazoline Analogues: Induction of Premature Senescence by W-2b in Proliferating Cancer Cells” (Scientific Reports, 2017)
Where two headings read alike, the source gives them in different places.

Experiments:
[1] = test system: MCF7 cells; test: MTT cell viability assay, MCF7; assay type: cell-based, human; settings: read-out: Cytotoxicity IC50, MCF7
Experimental: (§1) The cell viability assay was performed according to the procedure previously described with minor modifications. Briefly, MCF7, HCT-116 and fR2 cells were plated in 96 well plates at a density of 5 × 10^3 cells per well and incubated overnight. […] MTT dye solution (2.5 mg/mL) was introduced to the cells in medium 4 h before the completion of the treatment period and the formed formazan crystals were solubilized with DMSO. Optical density was measured with the help of a UV-visible spectrophotometer coupled with microplate reader (TECAN, Infinite M200 Pro), the percent inhibition was calculated and IC50 values were determined with the help of GraphPad Prism software (GraphPad software Inc. CA, USA).
(§2) Data were expressed as the mean ± standard deviation of three independent experiments performed and analyzed by Student’s t-test. IC50 values were determined with the help of GraphPad Prism software Version 5.0 (GraphPad Software, Inc., USA) by taking the log of inhibitor vs. response. A 2-sided value of *P < 0.05 was considered significant in all cases.

[2] = test system: HCT-116 cells; test: MTT cell viability assay, HCT-116; assay type: cell-based, human; settings: read-out: Cytotoxicity IC50, HCT-116
Experimental: as §1, §2

[3] = MTT cell viability assay, fR2 normal breast epithelial cells; assay type: cell-based, human; settings: human, fR2 normal breast epithelial cells, read-out: Cytotoxicity IC50, fR2
Experimental: as §1, §2

[4] = test system: fR2 cells; test: as above; assay type: cell-based, human; settings: 48 h, read-out: Cytotoxicity IC50, fR2
Experimental: as §1, §2

[5] = test system: MCF7 cells; test: SA-β-gal activity assay, MCF7; assay type: cell-based, human; settings: MCF7, sub-toxic concentrations, five days
Experimental: (§3) The procedure was followed as described previously with some modifications. Briefly, MCF7 and HCT-116 cells (0.4 × 10^6 per well) were seeded in six-well plates and treated with indicated concentrations of W-2b along with WA, vehicle and positive control doxorubicin for five days. Cells were accordingly washed twice with PBS, fixed with 4% paraformaldehyde for 5 min, rinsed twice with PBS and incubated with freshly prepared staining solution (40 mM citric acid/Na phosphate buffer, 5 mM K4[Fe(CN)6] 3H2O, 5 mM K3[Fe(CN)6], 150 mM sodium chloride, 2 mM magnesium chloride and 1 mg/ml X-gal in distilled water, pH 6.0) for 48 h at 37 °C. Stained cells were thoroughly washed and air dried in dark. Cells were then observed under bright field microscope (NIKON) for the SA-β-gal positive cells and images were captured at 20x magnification.

[6] = test system: HCT-116 cells; test: SA-β-gal activity assay, HCT-116; assay type: cell-based, human; settings: HCT-116, sub-toxic concentrations, five days
Experimental: as §3

[7] = test system: fR2 cells; test: SA-β-gal staining, fR2; assay type: cell-based, human; settings: fR2, sub-toxic doses 1–2 µM
[8] = test system: MCF7 cells; test: Colony formation (clonogenic) assay, MCF7; assay type: cell-based; settings: Homo sapiens, 120 h; MCF7, 1.0 µM, five days
Experimental: (§4) The experiment was carried out according to the standardized protocol with some modifications. MCF7 and HCT-116 cells were trypsinized properly, seeded in 6 well plates at a density of 1 × 10^3 cells/well and incubated overnight. Then treatment was given to the cells with vehicle, doxorubicin and various concentrations of W-2b for five days. Cells were then washed, fixed with 4% paraformaldehyde for 10 min, rewashed twice and stained with 0.25% crystal violet solution for 1 h. The wells containing the cells were then washed thoroughly with distilled water to remove any extra stains and then air dried overnight. The plate was then observed under an inverted microscope and colonies from three random fields were counted, averaged and photographed with NIKON camera (D3100) at 4x magnification.

[9] = test system: HCT-116 cells; test: Colony formation (clonogenic) assay, HCT-116; assay type: cell-based; settings: Homo sapiens, 120 h; HCT-116, 1.5 µM, five days
Experimental: as §4

[10] = test system: MCF7 cells; test: Flow cytometric cell cycle analysis (propidium iodide), MCF7; assay type: cell-based, human; settings: MCF7, 1.0 µM, 48 h; vehicle 13.03%
Experimental: MCF7 cells were seeded at a density of 0.4 × 10^6 cells/well in 35 mm dishes and incubated overnight at 37 °C and 5% CO2. Next day, cells were treated with vehicle and W-2b at indicated concentrations for 48 h. They were then trypsinized, centrifuged at 2000 rpm for 3 min, washed twice with ice-cold PBS and fixed with ice-cold 70% ethanol (v/v) for 1 hour at 4 °C. Cells were then pelleted down at 2000 rpm for 3 min, washed with PBS and incubated first with 200 μg/ml of RNase A in PBS at 37 °C water bath for 90 min and then with 50 μg/mL of propidium iodide (PI) at room temperature for 30 min in dark. The samples were then analyzed by BD Accuri C6 flow cytometer (BD Biosciences).

[11] = test system: 4T1 mouse mammary carcinoma; test: In vivo tumor growth, 4T1 mouse mammary carcinoma model; settings: 25 mg/kg b.w. intraperitoneal
Experimental: The experiment was performed according to the pre-standardized protocol with minor modifications. To evaluate the in vivo anti-tumor efficacy of W-2b, healthy female Balb/c mice (25–30 g) were taken. Animals were randomized into three groups, and six animals were taken per group. For the tumor cells implantation, mouse mammary carcinoma 4T1 cells (1 × 10^6 per 200 μL) diluted in serum-free RPMI medium were injected subcutaneously into the mammary pad of each mouse around the second right mammary gland. A week after tumor cell implantation, when the palpable mammary tumors develop, mice were injected intraperitoneally with either vehicle (normal saline) or 5-FU (25 mg/kg/b.w.) or W-2b (25 mg/kg/b.w.) in each alternative day for two weeks. Tumor sizes were measured in each alternate day after tumor cell injection, and the body weight was recorded once in a week. Mice were sacrificed on the 15th day after treatment initiation, and tumors were dissected out carefully from the mammary pad area.

CC1=C(CO)C(=O)OC(C(C)C2CCC3C4CC5OC56C(O)C5ON=C(c7ccc([N+](=O)[O-])cc7)C5C(=O)C6(C)C4CCC23C)C1 (stereo not drawn) [W-2b, 4-nitrophenyl-2-isoxazoline withaferin A]
IC50 ([1]; 48 h): 0.705 ± 0.059 µM
IC50 ([1]; Homo sapiens, MCF7, 24 h, 24 h): 0.881 ± 0.052 µM
IC50 ([1]; Homo sapiens, MCF7, 72 h, 72 h): 0.682 ± 0.075 µM
IC50 ([2]; 48 h): 1.25 ± 0.156 µM
IC50 ([2]; Homo sapiens, HCT-116, 24 h, 24 h): 1.48 ± 0.129 µM
IC50 ([2]; Homo sapiens, HCT-116, 72 h, 72 h): 1.03 ± 0.33 µM
IC50 at 24 h ([3]; 24 h): 39.7 ± 7.3 µM
IC50 at 72 h ([3]; 72 h): 33.9 ± 8.23 µM
IC50 [4]: 35.5 ± 6.12 µM
SA-β-gal positive cells [5]: 58%
SA-β-gal positive cells [6]: 53%
SA-β-gal positive cells [7]: 15–19%
inhibition at 1 µM [8]: > 70%
inhibition at 1.5 µM [9]: > 70%
Cells in G2/M phase [10]: 45.5%
Inhibition in tumor volume ([11]; each alternate day for two weeks, Balb/c mice): 83.8%
Inhibition in tumor weight ([11]; each alternate day for two weeks, vs normal saline group): 91.2%
Tolerability of treated animals ([11]; two weeks): remained healthy without any serious side effects or mortality
